Converted amounts (≈) assume the structure as drawn.
Assays:
[1] = biological target: T1, Leucine-rich repeat serine/threonine-protein kinase 2 (Homo sapiens, UniProt Q5S007); test: Inhibition of recombinant human wild type GST-tagged LRRK2 (970 to 2527 residues) at 200 uM preincubated for 30 mins followed by fluorescein-LRRKtide substrate addition after 2 hrs by TR-FRET assay relative to control
[2] = test system: Leucine-rich repeat serine/threonine-protein kinase 2 (Homo sapiens), Q5S007 [G2019S]; settings: at 40 µM
Sequence of Leucine-rich repeat serine/threonine-protein kinase 2 (Homo sapiens), Q5S007 [G2019S] (Q5S007 whole entry G2019S, the tested form may be a part): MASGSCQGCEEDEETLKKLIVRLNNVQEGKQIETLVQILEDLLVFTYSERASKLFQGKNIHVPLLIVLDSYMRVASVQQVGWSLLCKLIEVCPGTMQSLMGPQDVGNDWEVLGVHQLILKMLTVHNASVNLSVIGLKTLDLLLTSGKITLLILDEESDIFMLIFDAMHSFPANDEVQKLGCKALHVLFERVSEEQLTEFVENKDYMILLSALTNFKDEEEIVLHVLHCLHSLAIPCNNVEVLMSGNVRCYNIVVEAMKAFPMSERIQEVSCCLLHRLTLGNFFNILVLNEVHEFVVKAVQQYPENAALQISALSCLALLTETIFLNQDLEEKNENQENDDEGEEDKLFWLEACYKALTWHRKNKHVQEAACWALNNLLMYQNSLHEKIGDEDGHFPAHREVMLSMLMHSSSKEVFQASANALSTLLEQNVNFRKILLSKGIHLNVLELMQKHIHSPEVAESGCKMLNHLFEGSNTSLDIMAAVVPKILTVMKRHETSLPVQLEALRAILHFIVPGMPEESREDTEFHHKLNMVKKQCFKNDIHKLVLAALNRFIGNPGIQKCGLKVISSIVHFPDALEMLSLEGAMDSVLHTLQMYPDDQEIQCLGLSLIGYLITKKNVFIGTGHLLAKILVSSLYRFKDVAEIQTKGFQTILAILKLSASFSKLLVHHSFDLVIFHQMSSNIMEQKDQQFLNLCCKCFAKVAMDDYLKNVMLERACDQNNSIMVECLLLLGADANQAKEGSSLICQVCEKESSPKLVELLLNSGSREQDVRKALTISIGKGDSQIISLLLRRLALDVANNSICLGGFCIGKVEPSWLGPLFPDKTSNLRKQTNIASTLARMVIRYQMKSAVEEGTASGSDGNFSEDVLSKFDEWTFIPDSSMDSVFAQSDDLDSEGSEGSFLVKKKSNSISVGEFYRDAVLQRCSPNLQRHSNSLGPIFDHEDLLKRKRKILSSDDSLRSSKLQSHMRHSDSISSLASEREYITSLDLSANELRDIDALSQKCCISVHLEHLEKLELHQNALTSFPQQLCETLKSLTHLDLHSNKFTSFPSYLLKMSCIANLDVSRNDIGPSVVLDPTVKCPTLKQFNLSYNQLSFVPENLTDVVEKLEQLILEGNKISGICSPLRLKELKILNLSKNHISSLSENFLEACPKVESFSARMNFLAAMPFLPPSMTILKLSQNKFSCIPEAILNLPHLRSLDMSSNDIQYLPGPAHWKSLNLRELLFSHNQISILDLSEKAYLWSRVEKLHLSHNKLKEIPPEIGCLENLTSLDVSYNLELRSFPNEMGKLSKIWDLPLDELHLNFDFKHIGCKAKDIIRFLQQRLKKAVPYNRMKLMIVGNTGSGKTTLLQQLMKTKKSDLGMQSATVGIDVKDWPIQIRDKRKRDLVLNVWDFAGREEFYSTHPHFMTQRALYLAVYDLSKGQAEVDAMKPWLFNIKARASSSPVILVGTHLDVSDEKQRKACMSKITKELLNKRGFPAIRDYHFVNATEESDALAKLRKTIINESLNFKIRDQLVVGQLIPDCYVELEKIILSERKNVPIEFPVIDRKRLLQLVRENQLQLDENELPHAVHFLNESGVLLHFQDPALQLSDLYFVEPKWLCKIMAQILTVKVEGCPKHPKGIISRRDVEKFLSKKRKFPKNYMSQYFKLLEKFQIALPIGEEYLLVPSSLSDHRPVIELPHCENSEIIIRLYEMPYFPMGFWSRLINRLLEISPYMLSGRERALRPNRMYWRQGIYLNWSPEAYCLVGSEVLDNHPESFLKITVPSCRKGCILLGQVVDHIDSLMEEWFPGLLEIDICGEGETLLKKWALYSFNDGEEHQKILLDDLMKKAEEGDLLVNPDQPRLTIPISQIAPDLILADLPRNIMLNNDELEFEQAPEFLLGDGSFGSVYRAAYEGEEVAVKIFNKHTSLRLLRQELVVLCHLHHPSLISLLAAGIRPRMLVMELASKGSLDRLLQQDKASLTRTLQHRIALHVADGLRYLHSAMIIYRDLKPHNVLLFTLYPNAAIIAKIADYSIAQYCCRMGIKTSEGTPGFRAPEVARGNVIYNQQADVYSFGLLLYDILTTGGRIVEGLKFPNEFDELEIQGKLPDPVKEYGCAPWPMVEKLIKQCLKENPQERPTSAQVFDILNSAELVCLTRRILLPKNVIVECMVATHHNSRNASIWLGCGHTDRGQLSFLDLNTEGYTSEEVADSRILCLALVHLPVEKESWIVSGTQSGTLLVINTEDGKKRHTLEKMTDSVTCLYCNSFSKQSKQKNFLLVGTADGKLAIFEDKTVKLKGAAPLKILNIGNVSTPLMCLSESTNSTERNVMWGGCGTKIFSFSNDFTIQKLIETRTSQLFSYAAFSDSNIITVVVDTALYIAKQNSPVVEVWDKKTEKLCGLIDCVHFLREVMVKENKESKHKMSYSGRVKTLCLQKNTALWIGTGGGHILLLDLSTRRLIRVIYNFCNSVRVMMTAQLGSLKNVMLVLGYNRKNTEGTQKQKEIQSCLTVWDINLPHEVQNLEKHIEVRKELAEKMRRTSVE
Description: Inhibition of recombinant human LRRK2 (970 to 2527 residues) G2019S mutant expressed in baculovirus at 40 uM preincubated for 30 mins followed by fluorescein-LRRKtide substrate addition after 2 hrs by TR-FRET assay

[3] = biological target: T1, Leucine-rich repeat serine/threonine-protein kinase 2
Description: Inhibition of recombinant human wild type GST-tagged LRRK2 (970 to 2527 residues) preincubated for 30 mins followed by fluorescein-LRRKtide substrate addition after 2 hrs by TR-FRET assay

[4] = biological target: Leucine-rich repeat serine/threonine-protein kinase 2 (Homo sapiens, UniProt Q5S007, G2019S)
Sequence of Leucine-rich repeat serine/threonine-protein kinase 2 (Homo sapiens, UniProt Q5S007, G2019S) (Q5S007 whole entry G2019S): as the sequence (Q5S007 whole entry G2019S, the tested form may be a part) above
Description: Inhibition of recombinant human LRRK2 (970 to 2527 residues) G2019S mutant expressed in baculovirus preincubated for 30 mins followed by fluorescein-LRRKtide substrate addition after 2 hrs by TR-FRET assay

[5] = test system: Leucine-rich repeat serine/threonine-protein kinase 2 (Homo sapiens), Q5S007 [G2019S]; settings: at 200 µM
Description: Inhibition of recombinant human LRRK2 (970 to 2527 residues) G2019S mutant expressed in baculovirus at 200 uM preincubated for 30 mins followed by fluorescein-LRRKtide substrate addition after 2 hrs by TR-FRET assay

[6] = biological target: T1, Leucine-rich repeat serine/threonine-protein kinase 2; test: Inhibition of recombinant human wild type GST-tagged LRRK2 (970 to 2527 residues) at 30 uM preincubated for 30 mins followed by fluorescein-LRRKtide substrate addition after 2 hrs by TR-FRET assay relative to control
[7] = biological target: T1, Leucine-rich repeat serine/threonine-protein kinase 2; test: Inhibition of recombinant human wild type GST-tagged LRRK2 (970 to 2527 residues) at 66.7 uM preincubated for 30 mins followed by fluorescein-LRRKtide substrate addition after 2 hrs by TR-FRET assay relative to control
[8] = Aqueous solubility of the compound in pH 7.4; type: physicochemical; settings: aqueous medium
[9] = Intrinsic clearance in rat liver microsomes; type: ADME, microsome; settings: read-out: CLH (converted)
[10] = Efflux ratio of apparent permeability from basolateral to apical over apical to basolateral side in MDCK cells; type: ADME, cell-based, Canis lupus familiaris; settings: dog
[11] = Intrinsic clearance in human liver microsomes; type: ADME, microsome; settings: read-out: CLH (converted)
[12] = Apparent permeability in MDCK cells; type: ADME, cell-based, Canis lupus familiaris; settings: dog
[13] = biological target: T1, Leucine-rich repeat serine/threonine-protein kinase 2; test: Inhibition of recombinant human wild type GST-tagged LRRK2 (970 to 2527 residues) at 22 uM preincubated for 30 mins followed by fluorescein-LRRKtide substrate addition after 2 hrs by TR-FRET assay relative to control

T1 sequence (Q5S007 whole entry, the tested form may be a part): as the sequence (Q5S007 whole entry G2019S, the tested form may be a part) above, with S2019G counted along it

Cn1ccc(-c2cc(-c3ccc4[nH]ccc4c3)cnc2N)n1 showed an inhibition [1] of 48% and an inhibition [2] of 65%.
Cc1ccc(-c2cnc(N)c(-c3nnc(C4CC4)o3)c2)cc1 gave an IC50 [3] of 2.3 µM and an IC50 [4] of 2.2 µM.
Cc1ccc(-c2cnc(N)c(-c3cnn(C)c3C)c2)cc1 gave an inhibition [5] of 62% and an inhibition [1] of 49%.
Work on Cn1cc(-c2cc(-c3ccc4[nH]ccc4c3)cnc2N)cn1 yielded an inhibition [1] of 75% and an IC50 [4] of 13 µM.
With Cn1cc(-c2cc(-c3ccc4c(ccn4C)c3)cnc2N)cn1 the inhibition [6] was 64% and the IC50 [4] was 5.8 µM.
In the case of CCNc1nc(Nc2cc(F)c(C(=O)N3CCOCC3)cc2OC)ncc1C(F)(F)F, the IC50 [3] is reported as 0.097 µM and the IC50 [4] is reported as 0.046 µM.
Work on Cc1ccc(-c2cnc(N)c(-c3cnc(C)o3)c2)cc1 yielded an IC50 [3] of 24 µM and an IC50 [4] of 11 µM.
Molecule Cc1ccc(-c2cnc(N)c(-n3cc(C)nn3)c2)cc1 has an inhibition [6] of 70% and an IC50 [4] of 9.1 µM.
With CCn1cc(-c2cc(-c3ccc(C)cc3)cnc2N)cn1 the IC50 [3] was 12 µM and the IC50 [4] was 12 µM.
Cc1ccc(-c2cnc(N)c(-c3cn[nH]c3)c2)cc1 showed an inhibition [7] of 72% and an IC50 [4] of 13 µM.
For Cc1ccc(-c2cnc(N)c(-c3cn(C)cn3)c2)cc1, the inhibition [1] was 60% and the IC50 [4] was 57 µM.
In the case of Cc1ccc(-c2cnc(N)c(-c3cnn(C)c3)c2)cc1, the IC50 [3] is reported as 16 µM, the solubility [8] is reported as 11 µg/mL (≈ 41.6 µM) and the CLint scaled [9] is reported as 283 mL/min/kg. For the same molecule, the efflux ratio [10] was 0.55, the CLint scaled [11] was 100 mL/min/kg and the IC50 [4] was 6.7 µM. The Papp [12] was 16.9 ×10⁻⁶ cm/s.
For Nc1ncc(-c2ccc3[nH]ccc3c2)cc1-c1nnc(C2CC2)o1, the IC50 [3] was 1.3 µM and the IC50 [4] was 1.6 µM.
Molecule CCc1nnc(-c2cc(-c3ccc4[nH]ccc4c3)cnc2N)o1 has an inhibition [13] of 77% and an IC50 [4] of 2.9 µM.
Cc1nnc(-c2cc(-c3ccc4[nH]ccc4c3)cnc2N)o1 gave an IC50 [4] of 3.6 µM.

From ChEMBL document CHEMBL4043168, “The design and SAR of a novel series of 2-aminopyridine based LRRK2 inhibitors” (Bioorg Med Chem Lett, 2017)
